Data taken from ChEMBL document CHEMBL1909046, “DrugMatrix in vitro pharmacology data”.

Tests used:
[1] = target: T1, Alpha-2A adrenergic receptor (Homo sapiens, UniProt P08913); type: cell membranes, Sf9, Membrane; settings: sf9; also: in other assays of this panel Not Active means under 50% inhibition at 10 µM
T1 sequence (P08913 whole entry): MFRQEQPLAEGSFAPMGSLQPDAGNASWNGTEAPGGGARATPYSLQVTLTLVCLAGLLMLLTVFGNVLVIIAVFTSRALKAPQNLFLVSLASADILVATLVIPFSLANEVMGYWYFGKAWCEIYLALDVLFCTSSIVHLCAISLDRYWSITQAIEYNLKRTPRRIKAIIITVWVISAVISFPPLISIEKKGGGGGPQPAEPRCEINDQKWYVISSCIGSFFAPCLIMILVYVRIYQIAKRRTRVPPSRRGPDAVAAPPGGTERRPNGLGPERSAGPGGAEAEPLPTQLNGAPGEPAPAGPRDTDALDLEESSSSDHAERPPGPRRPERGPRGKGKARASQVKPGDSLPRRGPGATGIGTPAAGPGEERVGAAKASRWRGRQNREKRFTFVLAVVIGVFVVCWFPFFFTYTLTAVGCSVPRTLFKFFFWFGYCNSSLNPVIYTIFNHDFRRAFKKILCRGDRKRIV

Carbonic anhydrase 2 = Carbonic anhydrase 2 (Homo sapiens, UniProt P00918); experiment: DRUGMATRIX: Carbonic Anhydrase II enzyme inhibition (substrate: 4-Nitrophenyl acetate (4-NPA)); type: tissue-based, Erythrocyte; settings: erythrocyte; Not Active = under 50% inhibition at 10 µM
[2] = target: T2, Cholecystokinin receptor type A (Homo sapiens, UniProt P32238); type: cell membranes, Membrane; settings: 1321-n1; also: in other assays of this panel Not Active means under 50% inhibition at 10 µM
T2 sequence (P32238 whole entry): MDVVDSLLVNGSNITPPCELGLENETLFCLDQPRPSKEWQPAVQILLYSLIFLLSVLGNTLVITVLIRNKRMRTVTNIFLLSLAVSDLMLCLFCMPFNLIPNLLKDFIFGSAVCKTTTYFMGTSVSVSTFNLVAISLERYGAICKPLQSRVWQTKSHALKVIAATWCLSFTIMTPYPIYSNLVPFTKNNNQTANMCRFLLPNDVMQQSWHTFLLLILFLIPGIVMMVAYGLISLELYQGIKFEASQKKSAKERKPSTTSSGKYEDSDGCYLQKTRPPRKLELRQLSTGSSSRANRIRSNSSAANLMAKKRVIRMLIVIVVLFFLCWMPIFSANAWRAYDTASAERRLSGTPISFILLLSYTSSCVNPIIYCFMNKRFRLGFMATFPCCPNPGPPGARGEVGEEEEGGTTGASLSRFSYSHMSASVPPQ

D(1A) dopamine receptor = D(1A) dopamine receptor (Homo sapiens, UniProt P21728); experiment: DRUGMATRIX: Dopamine D1 radioligand binding (ligand: [3H] SCH-23390); type: cell membranes, CHO, Membrane; settings: cho; Not Active = under 50% inhibition at 10 µM
[3] = DRUGMATRIX: Glutamate, NMDA, Phencyclidine radioligand binding (ligand: [3H] TCP); type: cell membranes, Rattus norvegicus, Wistar, Cerebral cortex, Membrane; settings: Not Active = under 50% inhibition at 10 µM
[4] = DRUGMATRIX: Interleukin IL-1 radioligand binding (ligand: [125I] interleukin 1beta); type: cell membranes, Membrane; settings: nih3t3; Not Active = under 50% inhibition at 10 µM
[5] = target: T3, Cysteinyl leukotriene receptor 1 (Homo sapiens, UniProt Q9Y271); type: cell membranes, CHO-K1, Membrane; settings: cho-k1; also: in other assays of this panel Not Active means under 50% inhibition at 10 µM
T3 sequence (Q9Y271 whole entry): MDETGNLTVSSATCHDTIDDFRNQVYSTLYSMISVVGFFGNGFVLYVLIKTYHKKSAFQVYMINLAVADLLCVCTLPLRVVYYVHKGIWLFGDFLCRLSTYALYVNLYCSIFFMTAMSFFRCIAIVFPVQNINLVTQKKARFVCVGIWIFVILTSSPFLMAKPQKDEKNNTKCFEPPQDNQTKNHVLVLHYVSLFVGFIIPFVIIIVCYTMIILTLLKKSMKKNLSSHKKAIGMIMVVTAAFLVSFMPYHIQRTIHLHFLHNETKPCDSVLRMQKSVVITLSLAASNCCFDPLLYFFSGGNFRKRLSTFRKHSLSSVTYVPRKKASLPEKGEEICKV

[6] = target: T4, Amine oxidase [flavin-containing] A (Homo sapiens, UniProt P21397); experiment: DRUGMATRIX: Monoamine Oxidase MAO-A enzyme inhibition (substrate: Kynuramine); set-up: species or system BTI-TN-5B1-4; settings: bti-tn-5b1-4; Not Active = under 50% inhibition at 10 µM
T4 sequence (P21397 whole entry): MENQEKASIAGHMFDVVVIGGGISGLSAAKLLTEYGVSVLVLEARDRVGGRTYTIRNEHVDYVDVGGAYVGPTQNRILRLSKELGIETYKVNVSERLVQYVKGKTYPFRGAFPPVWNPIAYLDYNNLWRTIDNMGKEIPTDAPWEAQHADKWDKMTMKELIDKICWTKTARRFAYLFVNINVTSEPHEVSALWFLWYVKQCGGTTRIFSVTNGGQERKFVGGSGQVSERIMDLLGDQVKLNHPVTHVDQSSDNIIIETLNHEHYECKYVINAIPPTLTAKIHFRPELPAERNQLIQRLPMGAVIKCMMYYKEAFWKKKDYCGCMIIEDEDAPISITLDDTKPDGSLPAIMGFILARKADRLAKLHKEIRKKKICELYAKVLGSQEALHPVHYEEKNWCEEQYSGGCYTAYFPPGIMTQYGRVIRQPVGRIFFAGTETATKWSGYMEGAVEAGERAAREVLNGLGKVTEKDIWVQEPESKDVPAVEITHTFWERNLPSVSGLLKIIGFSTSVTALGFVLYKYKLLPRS

[7] = DRUGMATRIX: Phorbol Ester radioligand binding (ligand: [3H] PDBu); type: cell membranes, Mus musculus, ICR, Brain, Membrane; settings: Not Active = under 50% inhibition at 10 µM
[8] = DRUGMATRIX: Phosphodiesterase PDE3 enzyme inhibition (substrate: [3H]cAMP + cAMP); type: tissue-based, Homo sapiens; settings: platelet; Not Active = under 50% inhibition at 10 µM
[9] = DRUGMATRIX: Platelet-Derived Growth Factor (PDGF) radioligand binding (ligand: [125I] PDGF); type: cell-based; settings: nih3t3; Not Active = under 50% inhibition at 10 µM
Neutrophil elastase = target: T5, Neutrophil elastase (Homo sapiens, UniProt P08246); type: tissue-based;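 also: inhibition of neutrophil elastase enzyme activity, measured with a p-nitroanilide-linked peptide substrate; in other assays of this panel Not Active means under 50% inhibition at 10 µM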
T5 sequence (P08246 whole entry): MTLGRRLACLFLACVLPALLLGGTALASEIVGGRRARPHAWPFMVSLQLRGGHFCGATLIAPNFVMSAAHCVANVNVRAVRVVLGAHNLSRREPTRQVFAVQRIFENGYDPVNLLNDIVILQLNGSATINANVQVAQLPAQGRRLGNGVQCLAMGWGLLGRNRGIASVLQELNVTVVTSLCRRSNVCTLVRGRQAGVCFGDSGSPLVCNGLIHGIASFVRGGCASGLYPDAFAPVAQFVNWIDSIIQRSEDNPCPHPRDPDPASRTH

[10] = DRUGMATRIX: Purinergic P2X radioligand binding (ligand: [3H] alpha, beta-Methylene-ATP); type: cell membranes, Oryctolagus cuniculus, New Zealand albino, Urinary bladder, Membrane; settings: Not Active = under 50% inhibition at 10 µM
Estrogen receptor beta = Estrogen receptor beta (Homo sapiens, UniProt Q92731); settings: sf9; also: in other assays of this panel Not Active means under 50% inhibition at 10 µM
Estrogen receptor beta, sequence (Q92731 whole entry): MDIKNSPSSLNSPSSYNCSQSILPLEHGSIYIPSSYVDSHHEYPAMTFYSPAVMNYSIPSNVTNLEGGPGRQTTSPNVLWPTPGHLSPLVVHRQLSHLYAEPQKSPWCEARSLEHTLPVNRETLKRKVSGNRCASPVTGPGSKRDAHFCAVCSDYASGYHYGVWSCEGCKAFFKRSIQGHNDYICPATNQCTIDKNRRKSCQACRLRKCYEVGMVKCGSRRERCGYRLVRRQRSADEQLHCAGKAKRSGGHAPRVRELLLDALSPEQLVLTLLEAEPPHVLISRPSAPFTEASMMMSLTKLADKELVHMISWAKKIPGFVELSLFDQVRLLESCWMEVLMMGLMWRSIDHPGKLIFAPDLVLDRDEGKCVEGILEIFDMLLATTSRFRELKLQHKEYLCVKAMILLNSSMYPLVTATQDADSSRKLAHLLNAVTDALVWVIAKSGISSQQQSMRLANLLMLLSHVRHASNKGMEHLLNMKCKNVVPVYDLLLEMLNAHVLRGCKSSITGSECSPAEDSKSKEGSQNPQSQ

D(1A) dopamine receptor, sequence (P21728 whole entry): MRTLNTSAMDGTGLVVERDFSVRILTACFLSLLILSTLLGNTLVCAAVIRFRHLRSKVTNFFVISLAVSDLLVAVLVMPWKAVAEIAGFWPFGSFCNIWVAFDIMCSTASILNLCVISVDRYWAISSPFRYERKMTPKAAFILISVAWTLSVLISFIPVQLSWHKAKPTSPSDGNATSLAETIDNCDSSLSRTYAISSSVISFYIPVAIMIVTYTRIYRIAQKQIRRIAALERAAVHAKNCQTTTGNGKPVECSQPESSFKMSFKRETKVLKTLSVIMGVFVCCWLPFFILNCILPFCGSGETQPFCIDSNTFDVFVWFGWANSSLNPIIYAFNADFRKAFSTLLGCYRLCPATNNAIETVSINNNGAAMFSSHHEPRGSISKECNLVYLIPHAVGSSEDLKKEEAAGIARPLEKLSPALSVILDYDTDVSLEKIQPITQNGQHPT

Cc1[nH]cnc1CN1CCc2c(c3ccccc3n2C)C1=O [ALOSETRON]
Not Active: IC50 [1] | IC50 (Carbonic anhydrase 2) | IC50 [2] | IC50 (D(1A) dopamine receptor) | IC50 [3] | Ki [3] | IC50 [4] | Ki [4] | IC50 [5] | IC50 [6] | IC50 [7] | Ki [7] | IC50 [8] | Ki [8] | IC50 [9] | Ki [9] | IC50 (Neutrophil elastase) | IC50 [10] | Ki [10] | IC50 (Estrogen receptor beta)

O=c1cc(-c2ccccc2)oc2c1ccc1ccccc12 [ALPHA-NAPHTHOFLAVONE]
Not Active: IC50 [1] | IC50 (Carbonic anhydrase 2) | IC50 [2] | IC50 (D(1A) dopamine receptor) | IC50 [3] | Ki [3] | IC50 [4] | Ki [4] | IC50 [5] | IC50 [6] | IC50 [7] | Ki [7] | IC50 [8] | Ki [8] | IC50 [9] | Ki [9] | IC50 (Neutrophil elastase) | IC50 [10] | Ki [10] | IC50 (Estrogen receptor beta)

NCC[C@H](O)C(=O)N[C@@H]1C[C@H](N)[C@@H](O[C@H]2O[C@H](CN)[C@@H](O)[C@H](O)[C@H]2O)[C@H](O)[C@H]1O[C@H]1O[C@H](CO)[C@@H](O)[C@H](N)[C@H]1O [AMIKACIN]
Not Active: IC50 [1] | IC50 (Carbonic anhydrase 2) | IC50 [2] | IC50 (D(1A) dopamine receptor) | IC50 [3] | Ki [3] | IC50 [4] | Ki [4] | IC50 [5] | IC50 [6] | IC50 [7] | Ki [7] | IC50 [8] | Ki [8] | IC50 [9] | Ki [9] | IC50 (Neutrophil elastase) | IC50 [10] | Ki [10] | IC50 (Estrogen receptor beta)

CC1(C)S[C@@H]2[C@H](NC(=O)[C@H](N)c3ccc(O)cc3)C(=O)N2[C@H]1C(=O)O [AMOXICILLIN]
Not Active: IC50 [1] | IC50 (Carbonic anhydrase 2) | IC50 [2] | IC50 (D(1A) dopamine receptor) | IC50 [3] | Ki [3] | IC50 [4] | Ki [4] | IC50 [5] | IC50 [6] | IC50 [7] | Ki [7] | IC50 [8] | Ki [8] | IC50 [9] | Ki [9] | IC50 (Neutrophil elastase) | IC50 [10] | Ki [10] | IC50 (Estrogen receptor beta)

CCOC(=O)OC(C)OC1=C(C(=O)Nc2ccccn2)N(C)S(=O)(=O)c2ccccc21 (stereo not given) [AMPIROXICAM]
Not Active: IC50 [1] | IC50 (Carbonic anhydrase 2) | IC50 [2] | IC50 (D(1A) dopamine receptor) | IC50 [3] | Ki [3] | IC50 [4] | Ki [4] | IC50 [5] | IC50 [6] | IC50 [7] | Ki [7] | IC50 [8] | Ki [8] | IC50 [9] | Ki [9] | IC50 (Neutrophil elastase) | IC50 [10] | Ki [10] | IC50 (Estrogen receptor beta)
